{
  "source": "patent EP1825852A1",
  "about": "“ST104P as an anti-angiogenic agent” (Sagittarius Life Science Corp., priority 2006, dated 2007)",
  "key": {"[1]": {"system": "BAEC", "test": "Cytotoxicity: cell proliferation assay (crystal violet stain) and morphology", "assay_type": "cell-based, Bovine", "method": "(§1) Fig.1. The cytotoxicity of ST104P in different types of cells. […] After treatment of ST104P at 10-500 µg/ml in DMEM medium containing 10% FCS for 24 h, the morphologies of BAEC and 3T3 cells were monitored under phase contrast microscopy. The pictures were taken at 400× magnification. (B). The dose-dependent effect of ST104P on the proliferation of different cells. After treatment with ST104P at 10-500 µg/ml or PBS for 48 h, the viability of various cells was determined by crystal violet method in an ELISA reader. Each data represent mean ± SD of quadruplicate experiments. Asterisks indicated statistic significance versus control (P<0.001).\nHuman umbilical vein endothelial cells (HUVEC; passage 3 to 6) were isolated from umbilical veins and cultured in RPMI 1640 medium (Life Technologies, Gaithersburg, MD) containing 15% fetal calf serum, 20 U/ml porcine heparin (Sigma Chemical Co), and 100 µg/ml endothelial cell growth supplement (Calbiochem; La Jolla, CA). Bovine aortic endothelial (BAEC) cells, 3T3 cells, and LL2 Lewis lung carcinoma cells were cultured with DMEM (Dulbecco's Modified Eagle Medium; Gibco BRL, Rockville, MD) containing 10% fetal calf serum (PAA, Austria), 2 mM glutamine, 100 U/ml penicillin and 100 µg/ml streptomycin (Gibco BRL, Rockville, MD) in 5% CO2 at 37 °C. Human vascular endothelial EA.hy926 cells were cultured in DMEM (Dulbecco's Modified Eagle Medium; Gibco BRL, Rockville, MD) containing 10% fetal calf serum (PAA, Austria), 100 µM sodium hypoxanthine, 0.4 µM aminopterin, 16 µM thymidine (HAT; Gibco BRL, Rockville, MD), 2 mM glutamine, 100 U/ml penicillin and 100 µg/ml streptomycin (Gibco BRL, Rockville, MD) in 5% CO2 at 37 °C.\nThe effect of ST104P on the viability of various cells was determined using crystal violet stain assay. Briefly, cells cultured in 96-well plate (2-4 x10^3 cells/well) were treated with various doses of ST104P for 48 h. […] The dye in viable cells was measured by reading the optical density at 590 nm using a scanning multi-well spectrophotometer (ELISA reader; Dynatech Laboratories, Chantilly, VA)."}, "[2]": {"settings": "in vivo"}, "[3]": {"system": "BAEC", "test": "Tube formation assay in Matrigel", "assay_type": "cell-based, Bovine", "settings": "20-100 µg/ml", "method": "(§2) Fig. 3. ST104P abolished the tube formation of endothelial cells. Application of ST104P perturbed tubular network of BAEC or EA.hy9236 cells in Matrigel. Endothelial cells were applied to Matrigel-coated plate in the absence or presence of ST104P. After 8 h, the tubular structures of BAEC cells were monitored and recorded under light microscopy. The pictures were taken at 400× magnification.\n(§3) Matrigel (Becton Dickinson; Bedford, MA) was diluted with cold serum-free medium to 10 mg/ml. Two hundred µl of the diluted solution were added to each well in 24-well plate and allowed to form a gel at 37 °C for 30 min. BAEC or HUVEC (1.5 x 10^5 cells per ml) were initially incubated for 15 min with various doses of ST104P in complete medium. Two hundred µl of the cell suspension (3 x 10^4 cells) were then subsequently added to each well and incubated for 6-8 h at 37 °C in 5% CO2. Under these conditions endothelial cells form delicate networks of tubes that are detectable within 2-3 h and are fully developed after 8-12 h. After incubation with ST104P, the wells were washed and the Matrigel and its endothelial tubes were fixed with 3% paraformaldehyde."}, "[4]": {"system": "MMP-2", "test": "MMPs secretion by endothelial cells, gelatin zymography", "assay_type": "cell-based", "settings": "BAEC and EA.hy926, even at dose as low as 10 µg/ml, 24 h, conditioned media", "method": "(§4) ST104P decreases the MMPs secretion by endothelial cells. The conditioned media of BAECs or EA.hy926 cells (in 24-well plate at 1x10^4 cells/well) treated with PBS or ST104P (10-500 µg/ml) for […] were collected to analyze the expression of MMPs by gelatin-PAGE zymography.\n(§5) Secretion of MMPs by endothelial cells was assessed by 0.1% gelatin-SDS-PAGE zymography. Briefly, endothelial cells near 80% confluence were washed twice with serum-free media and treated with various doses of vasostatin for 24-48 h: Conditioned media were collected and assayed for protein concentration by Bradford assay. Aliquots of conditioned media were subjected to separation with 10% SDS-PAGE containing 0.1% type A gelatin (Sigma; St. Louis, MO). After electrophoresis, gel was washed twice with 2.5% Triton X-100, incubated in buffer containing 40 mM Tris-HCl, pH 8.0, 10 mM CaCl2, 0.01% sodium azide at 37 °C for 12-24 h, stained with 0.25% Coomassie Blue R-250 in 50% methanol and 10% acetic acid for 1 h, and destained with 10 % acetic acid, 20% methanol. The gelatinolytic regions by MMPs were visualized as white bands in blue background."}, "[5]": {"system": "MMP-9", "test": "MMPs secretion by endothelial cells, gelatin zymography", "assay_type": "cell-based", "settings": "BAEC and EA.hy926, even at dose as low as 10 µg/ml, 24 h, conditioned media", "method": "as §4, §5"}, "[6]": {"system": "EA.hy926", "test": "Cell migration assay (Boyden chamber, bFGF as chemoattractant)", "assay_type": "cell-based, Human", "settings": "EA.hy926, incubation 6 h, bFGF 100 ng/ml"}, "[7]": {"system": "EA.hy926 cells", "test": "Tube formation assay in Matrigel", "assay_type": "cell-based, Human", "settings": "20-100 µg/ml", "method": "as §2, §3"}, "[8]": {"system": "CAM", "test": "Chorioallantoic membrane (CAM) assay", "protocol": "The CAMs in 8-day old chicken embryos were incubated with saline or ST104P (50 or 200 µg in saline) for 48 h. The angiogenesis profiles on CAMs were recorded under dissection microscope.\nThe CAM assay was carried out as described previously (Sheu et al., Anticancer Res 18, 4435-4441,1998). Briefly, fertilized White Leghorn chicken eggs were purchased from Taiwan Provincial Research Institute for Animal Health (Hsin-Chu, Taiwan) and incubated at 37 °C with 60% humidity. On day 3, a square window was opened in the shell, and 2 to 3 ml of albumen was removed to allow detachment of the developing CAM. The window was sealed with a glass, and the eggs were returned to the incubator. On day 8, 50-100 µg ST104P in saline was injected onto the top of the CAM. The CAMs were examined daily until day 10-12, when the angiogenic response peaks, and photographed in ovo with a stereomicroscope equipped with Zeiss MC63 camera system (Zeiss, Oberkochen, Germany). The experiments were carried out using 10 eggs per group."}, "[9]": {"system": "BAEC", "test": "Cell migration assay (Boyden chamber, bFGF as chemoattractant)", "assay_type": "cell-based, Bovine", "settings": "incubation 6 h, bFGF 100 ng/ml", "method": "Fig. 2. ST104P inhibited the migration of endothelial cells. The effect of ST104p on migration of endothelial cells. BAEC were plated in 6-well plate (1 x 10^6 cells per well) and treated with vasostatin of indicated dose for 12 h. After trypsinization, endothelial cells were applied to top wells in Boyden chamber to initiated migration toward chemoattractant bFGF (100 ng/ml) in the bottom wells. The migrated cells on filter were stained and counted. Each point represents mean ± SEM of triplicate experiments.\nEndothelial cells were treated with ST104P of indicated doses for 6-12 h, harvested by trysinization, collected by centrifugation, resuspended in DMEM media containing 0.1% BSA, and seeded in triplicate for each dose and controls in the upper compartment of the chamber (1.2 x 10^5 cells in 400 µl). The lower compartment was filled with 200 µl of the DMEM media containing 100 ng/ml bFGF (R&D, Minneapolis, MN) as the chemoattractant, or with DMEM media containing 0.1% BSA as the negative control (to evaluate random migration). […] After incubation for 2-4 h in a humidified 5% CO2 atmosphere at 37 °C, cells on the upper side of the filter were removed, and those that had migrated to the lower side were fixed in absolute ethanol, stained with 10% Giemsa solution (Merck, Germany), and counted as a mean ± SD per filter under five different high power fields."}, "[10]": {"system": "EA.hy926", "test": "Cytotoxicity: cell proliferation assay (crystal violet stain)", "assay_type": "cell-based, Human", "method": "as §1\n(§6) Human umbilical vein endothelial cells (HUVEC; passage 3 to 6) were isolated from umbilical veins and cultured in RPMI 1640 medium (Life Technologies, Gaithersburg, MD) containing 15% fetal calf serum, 20 U/ml porcine heparin (Sigma Chemical Co), and 100 µg/ml endothelial cell growth supplement (Calbiochem; La Jolla, CA). […]\n(§7) The effect of ST104P on the viability of various cells was determined using crystal violet stain assay. […] The dye in viable cells was measured by reading the optical density at 590 nm using a scanning multi-well spectrophotometer (ELISA reader; Dynatech Laboratories, Chantilly, VA)."}, "[11]": {"system": "3T3 cells", "test": "Cytotoxicity: cell proliferation assay (crystal violet stain) and morphology", "assay_type": "cell-based", "method": "as §1, §6, §7"}, "[12]": {"system": "Lewis lung carcinoma", "assay_type": "in vivo, C57BL/6J mice", "method": "Fig. 6. Injection of ST104P suppressed tumor growth of Lewis lung carcinoma in mice. The subcutaneous dorsa of mice were implanted with Lewis lung carcinomas. The tumor sizes in mice during treatment with ST104P or control were recorded. […] Each point represents mean ± SEM for ten mice.\nFig. 7. Injection of ST104P prolonged the survival of tumor-bearing mice. The subcutaneous dorsa of mice were implanted with Lewis lung carcinomas. The tumor sizes in mice during treatment with ST104P or control were recorded. […] Each point represents mean ± SEM for ten mice. The overall survival rates of ten mice in PBS- or ST104P-treated group were recorded.\nAnimal study was carried out in the animal facility of Kaohsiung Veterans General Hospital in accordance with institutional guidelines. Male C57BL/6J mice (6- to 8-week-old; Animal Center of National Cheng Kung University, Taiwan) were used. Mice were acclimated and caged in groups of four or less. All mice were fed with a diet of animal chow and water ad libitum. Animals were anesthetized in a methoxyflurane chamber prior to all procedures and were observed until fully recovered. Animals were sacrificed by a lethal dose of methoxyflurane.\nC57BL/6J mice were implanted with Lewis lung carcinomas cells using the techniques described previously (O'Reilly et al., Cell 88, 277-285,1997). Briefly, the LL2 Lewis lung carcinoma cells were resuspended in PBS at the concentration of 2.5 x 10^6 cells per ml and injected into C57B16/J mice (n = 20) with 0.1 ml of the cell suspension to induce tumor. Tumors were measured with a dial-caliper and volumes were determined using the formula width^2 × length × 0.52. After tumor volumes reached 100-200 mm^3, mice were randomized into two groups receiving periodic injection of ST104P (n=10) or saline (n = 10) by subcutaneous injection at a site near tumor. The measurement of tumor size was terminated when mice began to die. In addition, the survival rate of mice in different groups was recorded and analyzed by Kaplan-Mier Survival analysis."}, "[13]": {"settings": "molar equivalent given for 500 µg/ml, read-out: IC50"}, "[14]": {"settings": "proliferation/viability, 48 h, crystal violet"}},
  "note": "Like-named read-outs stand apart in the source and are kept apart here.",
  "data": [
    {"substance": "tetrameric cyclic compound of 4,5-dihydroxynaphthalene-2,7, disulfonic acid linked by methylene bridges [ST104P]", "values": [
      {"measurement": "morphologies of cells", "setting": "[1]; 10-500 µg/ml, DMEM with 10% FCS, 24 h, phase contrast microscopy", "result": "altered the morphologies of endothelial cells"},
      {"measurement": "IC50", "setting": "[1]; [13]", "result": "> 350", "unit": "µM"},
      {"measurement": "IC50", "setting": "[1]; [14]", "result": "> 500", "unit": "µg/mL"},
      {"measurement": "tolerability", "setting": "[2]", "result": "well tolerated"},
      {"measurement": "tube formation (vessel-like structure in Matrigel)", "setting": "[3]", "result": "effectively abolished the vessel-like structure"},
      {"measurement": "secretion of MMP-2 by endothelial cells", "setting": "[4]", "result": "potently inhibited the secretion"},
      {"measurement": "secretion of MMP-9 by endothelial cells", "setting": "[5]", "result": "potently inhibited the secretion"},
      {"measurement": "IC50 (migration toward chemoattractant bFGF)", "setting": "[6]", "result": 100, "unit": "µg/mL"},
      {"measurement": "tube formation (vessel-like structure in Matrigel)", "setting": "[7]", "result": "effectively abolished the vessel-like structure"},
      {"measurement": "inhibition of angiogenesis", "setting": "[8]; 50 µg per CAM, 8-day old chick embryos", "result": 50, "unit": "%"},
      {"measurement": "mortality of chick embryos", "setting": "[8]; 200 µg per CAM, 9 out of 10 died versus 0 in PBS-treated group, used as index of angiogenesis inhibition", "result": 90, "unit": "%"},
      {"measurement": "vascular network on CAMs", "setting": "[8]; 50 or 200 µg in saline, 48 h, 8-day old chicken embryos", "result": "severely destroyed"},
      {"measurement": "IC50 (migration toward chemoattractant bFGF)", "setting": "[9]", "result": 100, "unit": "µg/mL"},
      {"measurement": "IC50", "setting": "[10]; EA.hy926, molar equivalent given for 500 µg/ml, read-out: IC50", "result": "> 350", "unit": "µM"},
      {"measurement": "IC50", "setting": "[10]; proliferation/viability, EA.hy926, 48 h, crystal violet", "result": "> 500", "unit": "µg/mL"},
      {"measurement": "IC50", "setting": "[11]; [13]", "result": "> 350", "unit": "µM"},
      {"measurement": "IC50", "setting": "[11]; [14]", "result": "> 500", "unit": "µg/mL"},
      {"measurement": "decrease of average tumor size versus saline-treated groups", "setting": "[12]; 100 µg, subcutaneous injection for four times", "result": "~ 40%"},
      {"measurement": "average tumor size", "setting": "[12]; 100 µg, subcutaneous injection for four times, saline-treated 4876 ± 670 mm^3, P < 0.05", "result": "2620 ± 320", "unit": "mm^3"},
      {"measurement": "weight loss or adverse effects", "setting": "[12]; mouse, in vivo", "result": "no evident weight loss or adverse effects"},
      {"measurement": "survival of tumor-bearing mice", "setting": "[12]; versus vehicle-treated group, P < 0.01, Kaplan-Meier", "result": "survived significantly longer"}
    ]}
  ]
}
